One experiment has as its system retinal ganglion cells. Nature of the experiment: Retinal ganglion cell input resistance measurement, voltage clamp. It is filed as cell-based, Brown Norway rats. The following applies: different concentrations; clamped at -60 mV, stepped to -55 mV; FIG. 12.
A further experiment relates to HCN channel current (Ih). Briefly: HCN channel current (Ih) measurement, voltage clamp of retinal ganglion cells. It counts as cell-based, Brown Norway rats. The conditions noted are these: different concentrations; clamped at -60 mV, stepped to -80, -100 and -120 mV for 1 second; FIG. 11.

Results on 1 compound are retold here after patent US9333208B2, “HCN inhibitors affecting ganglion cell function and visual function” (Allergan, Inc., priority 2013, dated 2016).

Molecules are shown by their SMILES.

With `COc1cc2c(cc1OC)CC(=O)N(CCCN(C)C[C@H]1Cc3cc(OC)c(OC)cc31)CC2` [Ivabradine, 3-[3-({[(7S)-3,4-dimethoxybicyclo[4.2.0]octa-1,3,5-trien-7-yl]methyl}(methyl)amino)propyl]-7,8-dimethoxy-2,3,4,5-tetrahydro-1H-3-benzazepin-2-one], the “retinal ganglion cell input resistance” value in the experiment on retinal ganglion cells was “increased with every concentration of Ivabradine in a linear manner”. Further, in the experiment on HCN channel current (Ih), the “retinal ganglion cell HCN (Ih) mediated current” value is reported as “statistically significant decrease”.
